Laboratory results published in PubChem BioAssay (NCI).
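Values below derive from 48-hour exposures of cells grown in 96-well plates, with endpoints linearly interpolated between the two concentrations bracketing the appropriate inhibition level. Here, GI50 denotes the concentration required for 50% inhibition of growth. TGI: total growth inhibition.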

Legend:
Assay in all cases: inhibition of tumour cell growth, NCI panel, 48 h
MCF7 breast = system: MCF7 breast
NCI/ADR-RES ovarian = system: NCI/ADR-RES ovarian
M19-MEL melanoma = system: M19-MEL melanoma
A549 NSCLC = system: A549 NSCLC
SK-MEL-2 melanoma = system: SK-MEL-2 melanoma
DMS 273 small cell lung = system: DMS 273 small cell lung
OVCAR-4 ovarian = system: OVCAR-4 ovarian
HOP-62 NSCLC = system: HOP-62 NSCLC
MDA-MB-435 = system: MDA-MB-435
DMS 114 small cell lung = system: DMS 114 small cell lung
SN12C renal = system: SN12C renal

CN(C)CC1CCCC1=O (stereo not given)
TGI (MCF7 breast): 7.03 µM | TGI (NCI/ADR-RES ovarian): 55.7 µM | TGI (M19-MEL melanoma): 2.33 µM | TGI (A549 NSCLC): 49 µM | TGI (SK-MEL-2 melanoma): 19.3 µM | TGI (DMS 273 small cell lung): 3.28 µM | TGI (OVCAR-4 ovarian): 5.58 µM | TGI (HOP-62 NSCLC): 31.3 µM | TGI (MDA-MB-435): 8.77 µM | TGI (DMS 114 small cell lung): 2.33 µM | TGI (SN12C renal): 2.85 µM

CCOC1=C2N=C(Cc3ccccc3F)N=C2C(=O)c2ccccc21
TGI (M19-MEL melanoma): > 100 µM | TGI (A549 NSCLC): > 100 µM | TGI (SK-MEL-2 melanoma): > 100 µM | TGI (DMS 273 small cell lung): > 100 µM | TGI (OVCAR-4 ovarian): > 100 µM | TGI (HOP-62 NSCLC): > 100 µM | TGI (DMS 114 small cell lung): > 100 µM | TGI (SN12C renal): > 100 µM

CCOC(=O)C(=O)Nc1cc(Cl)ccc1Cl
TGI (M19-MEL melanoma): > 100 µM | TGI (A549 NSCLC): > 100 µM | TGI (SK-MEL-2 melanoma): > 100 µM | TGI (DMS 273 small cell lung): > 100 µM | TGI (OVCAR-4 ovarian): > 100 µM | TGI (HOP-62 NSCLC): > 100 µM | TGI (DMS 114 small cell lung): > 100 µM | TGI (SN12C renal): > 100 µM

O=C(NC1CCCC1=O)c1ccccc1 (stereo not given)
TGI (M19-MEL melanoma): > 100 µM | TGI (A549 NSCLC): > 100 µM | TGI (SK-MEL-2 melanoma): > 100 µM | TGI (DMS 273 small cell lung): > 100 µM | TGI (OVCAR-4 ovarian): > 100 µM | TGI (HOP-62 NSCLC): > 100 µM | TGI (DMS 114 small cell lung): > 100 µM | TGI (SN12C renal): > 100 µM

C=C1CCC2[C@@H](CCC3[C@]2(C)CCC[C@]3(C)C(=O)OC)[C@@H]1CC=O (stereo not given in full)
TGI (M19-MEL melanoma): 49 µM | GI50 (A549 NSCLC): 62 µM | TGI (A549 NSCLC): > 100 µM | TGI (SK-MEL-2 melanoma): 91.7 µM | TGI (DMS 273 small cell lung): 50.1 µM | TGI (OVCAR-4 ovarian): 85.2 µM | GI50 (HOP-62 NSCLC): > 100 µM | TGI (HOP-62 NSCLC): > 100 µM | TGI (DMS 114 small cell lung): 53.2 µM | TGI (SN12C renal): > 100 µM
